The source of these data is ChEMBL document CHEMBL1131698, “Platelet glycoprotein IIb/IIIa receptor antagonists derived from isoxazolidines” (Bioorg Med Chem Lett, 1999).

pIC50: −log10 of the molar value.

The species named for this experiment is Homo sapiens. Put plainly: Compound was tested for its in vitro activity in the inhibition of platelet aggregation using human platelet rich plasma. Format: functional.
As to `Cc1cccc(S(=O)(=O)N[C@@H](CNC(=O)C[C@@H]2C[C@H](c3ccc(C(=N)N)cc3)N(C(C)C)O2)C(=O)O)c1`, the pIC50 (in general, the negative decadic logarithm of the IC50, by convention in mol/L) was 6.85.
As to `Cc1cccc(S(=O)(=O)N[C@@H](CNC(=O)C[C@H]2C[C@H](c3ccc(C(=N)N)cc3)N(C)O2)C(=O)O)c1`, the pIC50 is 5.82.
`Cc1noc(C)c1S(=O)(=O)N[C@@H](CNC(=O)C[C@@H]1C[C@H](c2ccc(C(=N)N)cc2)N(C)O1)C(=O)O` had a pIC50 of 7.08.
In the case of `CCCCOC(=O)N[C@@H](CNC(=O)C[C@@H]1C[C@H](c2ccc(C(=N)N)cc2)N(C)O1)C(=O)O`, the pIC50 is 6.79.
Compound `Cc1cccc(S(=O)(=O)N[C@@H](CNC(=O)C[C@@H]2C[C@H](c3ccc(C(=N)N)cc3)N(c3ccccc3)O2)C(=O)O)c1` gave a pIC50 of 6.28.
`Cc1cccc(S(=O)(=O)N[C@@H](CNC(=O)C[C@@H]2C[C@H](c3ccc(C(=N)N)cc3)N(Cc3ccccc3)O2)C(=O)O)c1`: the pIC50 was 6.72.
Next, `Cc1ccccc1S(=O)(=O)N[C@@H](CNC(=O)C[C@@H]1C[C@H](c2ccc(C(=N)N)cc2)N(C)O1)C(=O)O`: 7.24; `Cc1cccc(S(=O)(=O)N[C@@H](CNC(=O)C[C@@H]2C[C@H](c3ccc(C(=N)N)cc3)N(C)O2)C(=O)O)c1`: 7.55.
